US20230078089A1, “Regulating Activation of Fibroblasts to Prevent Fibrosis” (THE J. DAVID GLADSTONE INSTITUTES, A TESTAMENTARY TRUST …, priority 2020, published 2023)

What was measured:
[1] = tested on: non-CM compartment of mouse hearts; test: single cell RNA sequencing of non-CM heart cells from TAC mice; assay type: in vivo
Protocol: (§1) Cell isolation from mouse hearts was performed as described by Li et al. (J. Vis. Exp. (2014)) with modifications. Briefly, after proper anesthesia level was reached, thoracotomy was performed, and mouse heart was isolated. The isolated heart was cannulated and perfused with perfusion buffer (120.4 mM NaCl, 14.7 mM KCl, 0.6 mM KH2PO4, 0.6 mM Na2HPO4, 1.2 mM MgSO4, 10 mM Na-HEPES, 4.6 mM NaHCO3, 30 mM taurine, 10 mM 2,3-butanedione monoxime, and 5.5 mM glucose, pH 7.0) in a Langendorff perfusion system (Radnoti 120108EZ) for 5-10 minutes at 37° C. The cannulated heart was then digested by digestion buffer (perfusion buffer with 300 units/mL collagenase II (Worthington Biochemical) and 50 μM CaCl2)) for about 10 min at 37° C. At the end of digestion, the atria and great vessels were removed, and the ventricular tissue was transferred to and gently teased into small pieces in stop buffer (perfusion buffer with 10% fetal bovine serum) at 37° C. After gently pipetting, cell suspension was passed through a 250 uM strainer in a falcon tube and then at 30×g for 3 minutes at room temperature (RT). Then, the supernatant—containing most of the non-cardiomyocytes (CMs)—was divided from the pellet (containing the CM fraction). The non-CM fraction was centrifuged again at 30×g for 3 minutes at RT and the supernatant kept. The supernatant was then filtered with a cell strainer (70 um) and finally centrifuged at 400×g for 3 minutes at RT for eliminating debris. The non-CM pellet was finally resuspended in 1 mL cold PBS 0.5% BSA. 30 k cells were counted with trypan blue using a hemocytometer and then used for subsequent 10× Genomics Chromium single cell RNAseq preparation. For single cell ATAC, 500 k isolated and purified non-CMs were resuspended in […] lysis buffer (Tris-HCl 10 mM pH 7.4, NaCl 10 mM, MgCl2 3 mM, Tween-20 0.1%, P40 0.1%, Digitonin 0.01%, BSA 1% in Nuclease-free water), pipetted 10 times and kept on ice for 5 minutes. Nuclei were then washed 1 mL 1× PBS with 1% BSA and then […] at 4° C. The nuclei pellet was resuspended in 1 mL 1× PBS with 1% BSA and filtered with a 10 uM strainer (pluriSelect #43-50010-00). Nuclei were then counted with DAPI using a hemocytometer and finally 30 k non-CM nuclei used for subsequent 10× Genomics Chromium single cell ATACseq preparation. The CM-fraction was, after the first centrifugation, centrifugated again at 30×g for 3 minutes at RT in stopping buffer and the supernatant was discarded. The CM pellet was finally centrifuged at 400×g for 3 minutes in stopping buffer at RT and after discarding the supernatant, the cell pellet was lysed in Qiazol (miRNeasy kit—Qiagen) for subsequent RNA extraction.
Single-cell droplet libraries from the non-CM cell suspension (2× Sham, 2× TAC-Veh, 2× TAC-JQ1 and 2× TAC-JQ1 withdrawn) (FIG. 2C) were generated in the 10× Genomics Chromium controller according to the manufacturer's instructions in the Chromium Single Cell 3′ Reagent Kit v.2 User Guide. Additional components used for library preparation include the Chromium Single Cell 3′ Library and Gel Bead Kit v.2 (PN-120237) and the Chromium Single Cell 3′ Chip kit v.2 (PN-120236). Libraries were prepared according to the manufacturer's instructions using the Chromium Single Cell 3′ Library and Gel Bead Kit v.2(PN-120237) and Chromium 7 Multiplex Kit (PN-120262). Final libraries were sequenced on the NextSeq 500 (Illumina) for a quality control run and then on the NovaSeq (Illumina) for deeper sequencing. All the 8 samples were pooled and sequenced in one single lane. Sequencing parameters were selected according to the Chromium Single Cell v.2 specifications. All libraries were sequenced to a mean read depth of at least 50,000 total aligned reads per cell. Raw sequencing reads were processed using the Cell Ranger v.2.2.0 pipeline from 10× Genomics. […]

[2] = tested on: MEOX1 expression in human fibroblasts from kidney; test: MEOX1 expression by qPCR in TGFβ-treated human kidney fibroblasts; assay type: cell-based; settings: TGF-β1 10 ng/ml, JQ1 0.5 uM
Protocol: (§2) Human fibroblasts from lung (ATCC, #CRL-4058), liver (CELL APPLICATIONS INC, #712-05f) and kidney (Cell Biologics, #H-6016) were passaged and grown like the mouse cardiac fibroblasts (see “Generation of cardiac fibroblast immortalized cell line, culture condition and TGFβ stimulation” section for more details”). In brief, human fibroblasts were seeded at 1×10^5/well of 6 well plate at day 1. On day 2, the media was changed to the same basal media with 0.5% FBS. On the day 3, TGF-β1 (Peprotech #100-21C) was added into the media at a concentration of 10 ng/ml. JQ1 was added at a final concentration of 0.5 uM. Cells were collected on day 5 for RT-qPCR and gene expression analysis.

[3] = tested on: MEOX1 expression in human fibroblasts from liver; test: MEOX1 expression by qPCR in TGFβ-treated human liver fibroblasts; assay type: cell-based; settings: TGF-β1 10 ng/ml, JQ1 0.5 uM
Protocol: as §2

[4] = tested on: several rodent models of HF; settings: background description; cited from earlier work
[5] = tested on: BET family of bromodomain proteins; settings: background description; cited from earlier work
[6] = tested on: distal elements (incl. Meox1 enhancer) in fibroblasts, myeloid and endothelial cells; test: single cell ATAC sequencing of non-CM heart nuclei from TAC mice, chromatin accessibility of distal elements; assay type: in vivo, mouse
Protocol: as §1
After successful nuclei isolation, nuclei were then processed according to the 10× Genomics Single Cell ATAC kit v1.0 (PN-1000110) by first incubating with Tn5 Transposase for 1 hour, followed by GEM generation and barcode amplification using the 10× Genomics Chromium controller according to the manufacturer's instructions. Additional components used for library preparation include the Chromium Chip E Single Cell ATAC kit (PN-1000082) and Chromium i7 Multiplex Kit N, Set A primers (PN-1000084). Final libraries were sequenced on the NextSeq 500 (Illumina) for a quality control run and then on the NovaSeq (Illumina) for deeper sequencing. All the 8 samples (2× Sham, 2× TAC-Veh, 2× TAC-JQ1 and 2× TAC-JQ1 withdrawn) (FIG. 2C) were pooled and sequenced in one NovaSeq single lane. Sequencing parameters were selected according to the Chromium Single Cell ATAC v1.0 specifications. All libraries were sequenced to a median read depth of at least 2,500 fragments/nuclei. Raw sequencing reads were processed using the Cell Ranger ATAC v1.0 pipeline from 10× Genomics. In brief, reads were demultiplexed and aligned to the mouse mm10 genome. As a test of sample quality, a minimum of 70% of fragments overlapped targeted regions as defined by CellRanger. […]

isolated adult CMs = test: bulk RNA-Seq of isolated adult cardiomyocytes from TAC mice; assay type: in vivo, mouse
Protocol: Cell isolation from mouse hearts was performed as described by Li et al. (J. Vis. Exp. (2014)) with modifications. Briefly, after proper anesthesia level was reached, thoracotomy was performed, and mouse heart was isolated. The isolated heart was cannulated and perfused with perfusion buffer (120.4 mM NaCl, 14.7 mM KCl, 0.6 mM KH2PO4, 0.6 mM Na2HPO4, 1.2 mM MgSO4, 10 mM Na-HEPES, 4.6 mM NaHCO3, 30 mM taurine, 10 mM 2,3-butanedione monoxime, and 5.5 mM glucose, pH 7.0) in a Langendorff perfusion system (Radnoti 120108EZ) for 5-10 minutes at 37° C. The cannulated heart was then digested by digestion buffer (perfusion buffer with 300 units/mL collagenase II (Worthington Biochemical) and 50 μM CaCl2)) for about 10 min at 37° C. […] 30 k cells were counted with trypan blue using a hemocytometer and then used for subsequent 10× Genomics Chromium single cell RNAseq preparation. […] Nuclei were then counted with DAPI using a hemocytometer and finally 30 k non-CM nuclei used for subsequent 10× Genomics Chromium single cell ATACseq preparation. […]
Total RNA from CMs was extracted using miRNeasy kit (Qiagen) according to the manufacturer's instructions and quantified with Nanodrop (Thermo scientific). […] Reads were mapped to the mm10 reference mouse genome using STAR (v 2.7.3a) and assigned to Ensembl genes. […]

[7] = tested on: MEOX1 expression in human fibroblasts from lung; test: MEOX1 expression by qPCR in TGFβ-treated human lung fibroblasts; assay type: cell-based; settings: TGF-β1 10 ng/ml, JQ1 0.5 uM
Protocol: as §2

Meox1 expression = Meox1 expression by qPCR in TGF-β-treated cultured cardiac fibroblasts; assay type: cell-based, mouse; settings: TGF-β1 10 ng/ml, JQ1 500 nM
Protocol: JQ1 was synthesized and purified in the laboratory of Jun Qi (Dana-Farber Cancer Institute), as described by Filippakopoulos et al. (Nature 468, 1067-1073 (2010)). For in vivo experiments, a stock solution [50 mg/ml JQ1 in dimethyl sulfoxide (DMSO)] was diluted to a working concentration of 5 mg/ml in an aqueous carrier (10% hydroxypropyl b-cyclodextrin; Sigma C0926) using vigorous vortexing. Mice were injected at a dose of 50 mg/kg given intraperitoneally once daily. Vehicle control was an equal amount of DMSO dissolved in 10% hydroxypropyl b-cyclodextrin carrier solution. All solutions were prepared and administered using sterile technique. For in vitro experiments, JQ1 was dissolved in DMSO and administered to cells at 500 nM final concentration using an equal volume of DMSO as control.
A Tcf21MCM mouse (Acharya et al., Genesis 49, 870-877 (2011)) was crossed with a Rosa26-Ai6 mouse (Jackson Laboratory stock #007906) to generate a Tcf21^MCM/+; Rosa26^Ai6/+ mouse. At 10 weeks of age, intraperitoneal injection of Tamoxifen (75 mg tamoxifen/kg) was done for 5 days (once a day). […] As primary cells only undergo a pre-determined and finite number of cell divisions in culture, and then enter a state of replicative senescence, the inventors employed a widely used method for immortalizing mammalian cells in culture based on Simian virus 40 (SV40) T antigen expression. […]
Quantitative RT-PCR. […]

Cc1sc2c(c1C)C(c1ccc(Cl)cc1)=NC(CC(=O)OC(C)(C)C)c1nnc(C)n1-2 (centres unmarked) [JQ1]
fibroblast cell state (scRNAseq clustering) ([1]; TAC JQ1-treated): dramatic reversion of this cell state to one that closely approached the Sham state | myofibroblast cell state (Postn marker) ([1]; TAC JQ1-treated): shifted the myoFB cell state back toward a Sham-like state | Meox1 expression in MyoFBs (scRNAseq) after withdrawal ([1]; TAC JQ1 withdrawn): robust re-induction | fibroblast cell state (scRNAseq clustering) after withdrawal ([1]; TAC JQ1 withdrawn): shift of the FB population back to a TAC-like stressed state | myofibroblast cell state (Postn marker) after withdrawal ([1]; TAC JQ1 withdrawn): reverts these cells back to myoFBs | Meox1 expression in MyoFBs (scRNAseq) ([1]; TAC, BET inhibition with JQ1): abolished | transcriptome of endothelial and myeloid compartments ([1]; TAC, JQ1 exposure): dynamic transcriptomic shifts | TGFβ-induced MEOX1 expression [2]: suppressed | TGFβ-induced MEOX1 expression [3]: suppressed | prevention and treatment of heart failure [4]: can prevent and treat HF | potency as BET bromodomain inhibitor [5]: potent inhibitor | accessibility of fibroblast regions that opened from Sham to TAC (Cluster 9) ([6]; fibroblasts): insensitive | sensitivity of the enhancer downstream of Meox1 to stress and JQ1 exposure ([6]; fibroblasts, but not myeloid and endothelial cells): extremely sensitive | accessibility of the 10 peaks of the Meox1 enhancer ([6]; fibroblasts, JQ1 treatment): closed with JQ1 treatment back to a Sham level | increase in chromatin accessibility after TAC in fibroblasts ([6]; fibroblasts, JQ1 treatment): reversibly attenuated | accessibility of dynamic fibroblast distal elements (Cluster 2) after withdrawal ([6]; fibroblasts, JQ1 withdrawal): robustly re-accessible | accessibility of the 10 peaks of the Meox1 enhancer after withdrawal ([6]; fibroblasts, JQ1 withdrawn): re-opened | accessibility of dynamic fibroblast distal elements (Cluster 2) ([6]; fibroblasts, closed in Sham, opened in TAC, JQ1 treatment): closed by JQ1 | attenuation of chromatin accessibility after TAC in myeloid and endothelial cells ([6]; myeloid and endothelial cells, JQ1 treatment): less evident | overlap of CM transcriptome effects with transcriptomic signature of whole LV tissue (isolated adult CMs): < 3% | effects on the transcriptome of isolated adult CMs (isolated adult CMs; compared to published signature of whole LV tissue): modest | TGFβ-induced MEOX1 expression [7]: suppressed | TGF-β-induced Meox1 upregulation (Meox1 expression): suppressed
